Legend:
HRECs [1] = conditions: VEGF 100 ng/mL, Ap13 10 nM
Description: Migration was determined by the QCM™ chemotaxis 5 μm 96-well cell migration assay (Chemicon International, Inc.) as per the manufacture’s protocol. […] After 16 h, cells that migrated to the basal side of the chamber insert membrane were detached, lysed and detected using CyQuant GR™ dye. Migration is expressed as percent increase in migrated cells compared to untreated cells.

[2] = system: human retinal microvascular endothelial cells (HRECs); assay: In vitro HREC tube formation assay; type: cell-based; conditions: for Stimulation of HREC endothelial tube formation: factor added alone
Description: In vitro tube formation assays were carried out as previously described. Briefly, near confluent microvascular endothelial cells were pretreated with VEGF (100 ng/ml) for 2 h and then treated for 24 h with test compounds at serial concentrations, as indicated. Cells without VEGF treatment or with VEGF only were used as control. The cells were then detached and plated sparsely (2.5 ×10^4/well) on 24-well plates coated with 12.5% (v/v) Matrigel (BD, Franklin Lakes, NJ) and left overnight. The medium was then aspirated and 250 μl/well of 12.5% Matrigel was overlaid on the cells for 2 h to allow the polymerization of Matrigel, followed by addition of 500 μl/well of basal medium MCD131 with 10% fetal calf serum (FCS) for 24 h. The following day, the culture plates were observed under a phase contrast microscope and photographed at random in five fields (×10). The tubule length (mm/mm^2) per microscope field was quantified.

HRECs [3] = conditions: VEGF 100 ng/mL, Ap13 10 nM; remark: listed apart in the source
Description: The proliferation of HRECs was monitored by the crystal violet assay as described in our previous publication. […] After washing three times with PBS, the plates were air-dried and the remaining stain was dissolved in, 10% acetic acid and absorbance measured with a microplate reader at 540 nm.

APJ [4] = molecular target: T1, APJ (Homo sapiens, UniProt P35414); assay: APJ β-arrestin recruitment assay (PathHunter, CHO-K1-APJ); type: cell-based; set-up: β-galactosidase enzyme fragment (enzyme fragment complementation construct); host or cells: CHO-K1 (CHO-K1-APJ, PathHunter); conditions: for IC50: secondary assay, Ap13-mediated β-arrestin recruitment
T1 sequence (P35414 1-380): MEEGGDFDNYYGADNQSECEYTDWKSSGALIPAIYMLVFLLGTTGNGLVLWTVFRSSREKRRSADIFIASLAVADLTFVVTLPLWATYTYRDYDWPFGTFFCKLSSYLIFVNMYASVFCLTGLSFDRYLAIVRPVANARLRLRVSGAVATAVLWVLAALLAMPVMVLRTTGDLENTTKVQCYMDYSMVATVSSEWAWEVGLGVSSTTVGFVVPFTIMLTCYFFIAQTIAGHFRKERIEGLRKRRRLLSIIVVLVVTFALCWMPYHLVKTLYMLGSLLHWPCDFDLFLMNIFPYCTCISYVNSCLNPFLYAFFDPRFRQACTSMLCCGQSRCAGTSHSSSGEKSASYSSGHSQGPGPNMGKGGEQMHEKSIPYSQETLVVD
Description: (§1) PathHunter™ GPCR Arrestin and cAMP Hunter™ cell lines (DiscoveRx Corp., Fremont, CA) were used to assay G-protein-dependent signaling and β-arrestin recruitment to APJ. CHO-K1 cells stably expressing APJ (CHO-K1-APJ) or AT1 (CHO-K1-AT1) with β-arrestin/β-galactosidase enzyme fragment complementation constructs were maintained in HAM's F-12 medium (Hyclone, Logan, UT) supplemented with 10% FBS, 1X Penicillin-Streptomycin-Glutamine (Invitrogen; Carlsbad, CA), 300 μg/ml hygromycin (EMD Biosciences, San Diego, CA), and 800 μg/ml Geneticin (Cellgro, Manassas, VA). Primary Human Retinal Microvascular Endothelial Cells (HRECs) were purchased from Cell Systems (Kirkland, WA) and maintained in Complete Classic Medium with CultureBoost-R™ (Cell Systems). Parent CHO-K1 cells were obtained from ATCC and maintained in HAM’s F-12 medium supplemented with 10% FBS, and1X Penicillin-Streptomycin-Glutamine (Invitrogen; Carlsbad, CA). All cells were incubated at 37°C (5% CO2, 95% relative humidity) and maintained at less than 70% to 80% confluence (approximately 75,000 cells/cm^2). Cell heterologously expressing APJ or AT1 were not used after 10 passages. HRECs were not used in any experiments after five passages.
(§2) CHO-K1 cells engineered to over-express APJ or AT1, and β-arrestin were removed from flasks using TrypLE Select (1X), no phenol red (Life Technologies, Grand Island, NY), centrifuged, and resuspended in CP2 Reagent (DiscoveRx, Fremont, CA). Cells were counted using a Countess Automated Cell Counter (Invitrogen, Carlsbad, CA) and 5,000 cells/well were plated in a 384-well tissue culture treated microplate (Corning, Corning, NY). All plates were incubated overnight at 37°C, 5% CO2 in a final volume of 25 μl/well. Following incubation, 5 μl of peptides (10-point concentrations) and controls prepared in ligand buffer (1X HBSS, 10 mM HEPES, 0.1% BSA) were added to cells and incubated at 37°C for 1.5 h. Using a Multidrop Combi Reagent Dispenser (Thermo Scientific), 12 μl of Detection Reagent (DiscoveRx) comprised of substrate and co-factors was added to all wells and incubated at room temperature in the dark for 1 h. Chemiluminescent signal was detected on an EnVision Multi-label plate reader (Perkin Elmer) using a counting time of 1 s/well. The robustness of data from each screening plate and run was monitored by Z’ and Signal Window calculation.

APJ [5] = molecular target: T1, APJ; assay: APJ cAMP assay (primary, cAMP HitHunter, CHO-K1-APJ cells); type: cell-based; set-up: host or cells: CHO-K1 (CHO-K1-APJ / CHO-k1-AGTRL1)
Description: (§3) To identify small-molecule antagonists of the apelin receptor (APJ) we interrogated the SBP compound file of ~425,000 compounds using CHO-k1-AGTRL1 cells overexpressing human APJ and a competitive immunoassay of intracellular cAMP [59]. The compound file was screened at a concentration of 10 μM. For all 333 plates assayed, the average Z-factor = 0.68 and the average S/B = 8.2, indicating a robust assay performance. […] There were 2550 compounds that met this criterion, representing a hit rate of ~0.6%. […] Included in this hit set was a series of aminoquinolines, exemplified by compound 1 (Fig 1B). […] As part of an initial hit-validation strategy, these compounds and three other commercially available analogs were purchased for further testing. The purity and identify of all compounds were confirmed by NMR and LC-MS, and they were subsequently retested in a battery of cell-based assays of APJ function and counter screens. […] (Fig 1D).
as §1
(§4) All reagents unless otherwise specified are components of the cAMP HitHunter (DiscoveRx) kit. Ligand Buffer + 60 μM Forskolin (Cayman Chemical, Ann Arbor, MI) was made fresh on the day of the experiment and used for the dilution of positive and negative controls as well as all peptides. CHO-K1-APJ cells were dispensed into a 1536-well tissue culture microplate (Corning, Corning, NY) using a Multidrop at a seeding density of 1,000 cells/well and returned to the incubator. The next day, the cell culture media was removed and replaced with 15 μl/well of assay buffer (1X HBSS, 10 mM HEPES) containing anti-cAMP antibody (DiscoveRx). […] Plates were incubated at room temperature in the dark for 3 hours prior to chemiluminescence detection on an EnVision (Perkin Elmer) using a counting time of 1 s/well.

[6] = molecular target: T2, angiotensin II type 1 (AT1) (Homo sapiens, UniProt P30556); assay: AT1 β-arrestin recruitment counter assay (CHO-K1-AT1); type: cell-based
T2 construct: β-galactosidase enzyme fragment (enzyme fragment complementation construct); host or cells: CHO-K1 (CHO-K1-AT1, PathHunter)
T2 sequence (P30556 1-359): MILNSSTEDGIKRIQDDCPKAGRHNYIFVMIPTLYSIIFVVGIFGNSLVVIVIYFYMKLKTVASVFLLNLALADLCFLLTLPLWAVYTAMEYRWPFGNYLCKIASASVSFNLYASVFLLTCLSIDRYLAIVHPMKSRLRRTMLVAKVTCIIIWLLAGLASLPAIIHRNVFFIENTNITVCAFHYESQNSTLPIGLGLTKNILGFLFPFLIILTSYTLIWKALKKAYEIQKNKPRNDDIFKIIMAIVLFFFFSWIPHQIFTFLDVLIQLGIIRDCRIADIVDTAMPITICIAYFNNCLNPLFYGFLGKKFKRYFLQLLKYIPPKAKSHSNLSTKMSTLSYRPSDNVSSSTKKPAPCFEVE
Description: as §1, §2

parental CHO-K1 cells = assay: Parental cAMP counter assay (cells lacking APJ); type: cell-based; conditions: Cricetulus griseus
Description: as §3, §1, §4

[7] = Cytotoxicity, ATP-Lite, Fa2N-4 immortalized human hepatocytes; type: cell-based; conditions: ATP-lite assay, Fa2-N4 cells
Description: (§5) Fa2N-4 immortalized human hepatocytes (Xenotech) or HREC cells were grown to subconfluency in wells of a 96-well plate and exposed to different concentrations of compounds for 24 h after which the cells were washed and the media and compounds replaced. The cells were returned to the incubator for another 24 h. The extent of cell death (cell lysis) was determined by ATP-Lite reagent (Perkin-Elmer).

HRECs [8] = assay: Cytotoxicity, ATP-Lite, HRECs; type: cell-based; conditions: tested up to 100 μM
Description: as §5

[9] = Fa2N-4 immortalized human hepatocytes

IC50 (APJ [4]) | IC50 (APJ [5]) | IC50 [6] | Compound | Antagonism of Ap13-mediated recruitment of β-arrestin (APJ [4]) | IC50 (parental CHO-K1 cells) | further results
– | – | – | VEGF | – | – | Effect on HREC migration (HRECs [1]): stimulated HREC proliferation and migration; Stimulation of HREC endothelial tube formation [2]: stimulated the formation of endothelial tubes; Effect on HREC proliferation (HRECs [3]): stimulated HREC proliferation and migration
> 40 µM | 0.937 ± 0.084 µM | > 40 µM | O=C(O)c1ccccc1Nc1ccnc2cc(Cl)ccc12 [Compound 5, 2-((7-chloroquinolin-4-yl)amino)benzoic acid] | neither AQ nor 1, 3, 4, 5, or 6 antagonized | > 99 µM | –
> 99 µM | 0.556 ± 0.105 µM | > 40 µM | NC(=O)c1ccc(Nc2ccnc3cc(Cl)ccc23)cc1 [Compound 1, 4-((7-chloroquinolin-4-yl)amino)benzamide] | neither AQ nor 1, 3, 4, 5, or 6 antagonized | > 99 µM | IC50 at 48 h [7, 9]: > 50 µM
> 40 µM | 1.42 ± 0.038 µM | > 40 µM | COc1ccc(Nc2ccnc3cc(Cl)ccc23)cc1 [Compound 4, 7-chloro-N-(4-methoxyphenyl)quinolin-4-amine] | neither AQ nor 1, 3, 4, 5, or 6 antagonized | > 99 µM | IC50 at 48 h [7]: > 50 µM
> 99 µM | 1.15 ± 0.025 µM | > 99 µM | O=C(OCC(O)CO)c1ccccc1Nc1ccnc2cc(Cl)ccc12 (stereo not drawn) [Compound 3, glafenine] | neither AQ nor 1, 3, 4, 5, or 6 antagonized | > 99 µM | IC50 at 48 h [7, 9]: > 50 µM
– | – | – | O=C(Oc1coc(CSc2ncccn2)cc1=O)c1ccc([N+](=O)[O-])cc1 [ML221, 4-oxo-6-((pyrimidin-2-ylthio)methyl)-4H-pyran-3-yl 4-nitrobenzoate] | – | – | Cytotoxicity to HRECs (HRECs [8]): Neither ML221 nor AQ were significantly toxic; Effect on Ap13-dependent increase in HREC tube formation ([2]; Ap13-induced, concentration-dependent): blocked Ap13-dependent increases in tube formation; Effect on VEGF-induced HREC tube formation ([2]; VEGF 100 ng/mL, absence of exogenous Ap13): A similar effect was observed
> 99 µM | 23.5 ± 0.161 µM | > 40 µM | O=C(c1ccccc1Nc1ccnc2cc(Cl)ccc12)N1CCOCC1 [Compound 6, (2-((7-chloroquinolin-4-yl)amino)phenyl)(morpholino) methanone] | neither AQ nor 1, 3, 4, 5, or 6 antagonized | > 99 µM | –
– | – | – | CSCC[C@H](NC(=O)[C@@H]1CCCN1C(=O)CNC(=O)[C@H](CCCCN)NC(=O)[C@H](Cc1c[nH]cn1)NC(=O)[C@H](CO)NC(=O)[C@H](CC(C)C)NC(=O)[C@H](CCCNC(=N)N)NC(=O)[C@@H]1CCCN1C(=O)[C@H](CCCNC(=N)N)NC(=O)[C@@H](N)CCC(N)=O)C(=O)N1CCC[C@H]1C(=O)N[C@@H](Cc1ccccc1)C(=O)O [Ap13, apelin-13] | – | – | Stimulation of HREC endothelial tube formation [2]: stimulated the formation of endothelial tubes
– | – | – | CCNCc1cc(Nc2ccnc3cc(Cl)ccc23)ccc1O [DEAQ, desethylamodiaquine] | – | – | APJ antagonism in the APJ cAMP assay (APJ [5]): effective APJ antagonist equipotent to the parent AQ

— article PMC6135396, “Repurposing antimalarial aminoquinolines and related compounds for treatment of retinal neovascularization” (PLoS ONE, 2018)
